Source: PMC12116161, “An Elastase Inhibitor ShSPI from Centipede Attenuates Bleomycin-Induced Pulmonary Fibrosis” (Toxins, 2025)
Entries after “also recorded” stand apart in the source; their conditions may differ. Where a SMILES comes first, the peptide text is derived from it. Bridges are numbered along the chain shown (N, C = ends).

Assays:
[1] = tested on: BLM-induced idiopathic pulmonary fibrosis (IPF) mouse model; assay: Histopathologic analysis of the lungs (H&E and Masson staining) of IPF mice; type: in vivo, ICR mice
Method: Animal Model Preparation: The peptide powder was dissolved in pre-cooled saline and filtered to remove bacteria, then a spray needle was attached to a micro-syringe to aspirate the peptide solution. A total of 56 ICR mice were anesthetized by intramuscular injection of avertin. After anesthesia, the mice were fixed supine, the tongue was gently pulled, the vocal folds were exposed with a laryngoscope, the trachea was gently inserted, and the nebulized solution was rapidly pushed and injected. Each mouse was administered 100 μL of a 0.4 mg/mL bleomycin solution via tracheal spray, with the treatment performed once. Seven days after modeling, the mice were randomly grouped for ShSPI treatment based on weight loss scores. An additional 8 mice received the vehicle (normal saline) and were designated as the sham group.
A total of 48 suitable mice were randomly divided into five groups: the model control group (MC), the positive control group (PC), and the ShSPI low-dose groups (1 mg/kg), medium-dose groups (2 mg/kg), and high-dose groups (4 mg/kg).
Drug Administration: Starting on day 7 post-modeling, ShSPI peptide treatment groups were anesthetized with intramuscular avertin and received tracheal spray administration of the peptide. The low-dose group was treated with 1 mg/kg ShSPI peptide, the medium-dose group with 2 mg/kg, and the high-dose group with 4 mg/kg. The positive control group, without anesthesia, received 200 mg/kg pirfenidone (IPFD) via oral gavage. All groups were treated once daily for seven consecutive days.
Sample Collection: Twenty-four hours after the final treatment, all ICR mice were euthanized via intramuscular injection of suforane. […]
The samples from experiment 4.1 were then processed using standard protocols for paraffin embedding, and 5 μm thick paraffin sections were prepared. […] Multiple fields were randomly selected, and the severity of alveolar inflammation in each group was quantified according to criteria such as the area of tissue affected by inflammation. […]

ICR healthy mice [2] = assay: Single administration toxicity study: overall toxicity and examination of major organs; type: in vivo; conditions: single airway spray
Method: (§1) Specific pathogen-free (SIPF) grade ICR healthy mice (with an equal number of males and females, procured from Hunan Slaughter King Laboratory Animal Co., Changsha, China) were randomly divided into four experimental groups and received ShSPI via airway spray at doses of 0 mg/kg (control), 40 mg/kg, 80 mg/kg, or 160 mg/kg in a single administration. Following treatment, the mice were monitored for a 14-day observation period. On the fourteenth day, blood plasma samples were collected for precise measurement and analysis of hematological and biochemical parameters. The specific process is as follows.
At the end of the 14-day observation period, all mice underwent a comprehensive gross anatomical examination. Key organs, including the heart, liver, spleen, lungs, kidneys, brain, and gastrointestinal tract, were evaluated for changes in surface color, morphological structure, size, and tissue texture.

ICR healthy mice [3] = assay: Single administration toxicity study: hematological examination; type: in vivo; conditions: single airway spray, day 14 post-dose, EDTA whole blood, automated hematology analyzer, mean ± s
Method: as §1
On day 14 post-dose, approximately 1.7–2.0 mL of whole blood was collected for hematological and biochemical analyses. Hematological parameters were assessed using an automated hematology analyzer, while biochemical parameters were evaluated with an automated biochemistry analyzer. Prior to blood collection, all mice were fasted for at least 12 h. For hematological analysis, 200 μL of whole blood was immediately transferred into EDTA-containing tubes. For biochemical analysis, 1.5 mL of whole blood was placed into serum separator tubes without anticoagulant and centrifuged to isolate serum.

[4] = ShSPI tracheal spray once daily for 7 days

## CC[C@H](C)[C@@H]1NC(=O)[C@H](C)NC(=O)[C@@H]2CCCN2C(=O)[C@@H]2CSSC[C@H](NC(=O)[C@H](CO)NC(=O)[C@H](CC(N)=O)NC(=O)[C@H](CO)NC(=O)[C@H](Cc3ccc(O)cc3)NC(=O)[C@H](CCSC)NC(=O)[C@H](CCCNC(=N)N)NC(=O)CNC(=O)[C@H](Cc3ccccc3)NC(=O)[C@H](CCC(=O)O)NC(=O)[C@H](CC(=O)O)NC(=O)[C@H](Cc3ccccc3)NC(=O)[C@H](C(C)C)NC(=O)[C@@H]3CCCN3C(=O)[C@H](CCC(N)=O)NC(=O)[C@H](Cc3ccc(O)cc3)NC1=O)C(=O)N[C@@H](CCC(=O)O)C(=O)N[C@@H](CCSC)C(=O)N[C@@H](CCC(N)=O)C(=O)N[C@@H](CCCNC(=N)N)C(=O)N[C@@H](C)C(=O)N[C@@H](CCCNC(=N)N)C(=O)N[C@H](C(=O)N[C@@H](CC(C)C)C(=O)N[C@@H](CCCNC(=N)N)C(=O)NCC(=O)O)CSSC[C@H](N)C(=O)N1CCC[C@H]1C(=O)N[C@@H](CCC(N)=O)C(=O)N[C@@H](C(C)C)C(=O)N2 [ShSPI] (H-CPQVCPAIYQPVFDEFGRMYSNSCEMQRARCLRG-OH; disulfide 1-31, 5-24; N-terminus and C-terminus assumed)
[1]; ShSPI 1 mg/kg tracheal spray once daily for 7 days, compared with 2 and 4 mg/kg
  effect on the model's damage (fibrotic lesions): less effective
[1]; [4]
  collagen deposition in the lungs (Masson staining): substantial inhibition
  lung inflammation (H&E staining): substantial reduction
ICR healthy mice [2]; doses up to 160 mg/kg, end of 14-day observation
  histopathological examination of major organs: no pathological changes
ICR healthy mice [2]; escalating doses up to 160 mg/kg, 14-day observation
  toxicity after single administration: no detectable toxicity observed; also recorded: did not show significant toxic effects
ICR healthy mice [3]; 40 mg/kg ShSPI, n = 6
  Bas: 0.02 ± 0.01 10^9/L
  Bas%: 0.35 ± 0.28%
  Eos: 0.09 ± 0.05 10^9/L
  HCT: 36.98 ± 1.32%
  HGB: 123.50 ± 5.64 g/L
  Lym: 6.40 ± 2.49 10^9/L
  Lym%: 78.20 ± 2.18%
  MCH: 15.86 ± 0.43 pg
  MCHC: 333.50 ± 3.98 g/L
  MCV: 47.56 ± 0.95 fL
  MPV: 5.35 ± 0.18 fL
  Mon: 0.28 ± 0.13 10^9/L
  Mon%: 3.35 ± 0.74%
  Neu: 1.41 ± 0.69 10^9/L
  Neu%: 16.78 ± 1.90%
  PCT: 0.71 ± 0.04%
  PDW: 15.21 ± 0.17
  PLT: 1326.50 ± 494.34 10^9/L
  RBC: 7.78 ± 0.23 10^12/L
  RDW-CV: 12.70 ± 0.76%
  RDW-SD: 26.68 ± 1.26 fL
  WBC: 8.22 ± 3.30 10^9/L
ICR healthy mice [3]; 80 mg/kg ShSPI, n = 6
  Bas: 0.03 ± 0.04 10^9/L
  Bas%: 0.56 ± 0.60%
  Eos: 0.22 ± 0.20 10^9/L
  Eos%: 3.10 ± 2.15%
  HCT: 35.93 ± 2.11%
  HGB: 120.33 ± 6.83 g/L
  Lym: 4.66 ± 1.68 10^9/L
  Lym%: 68.93 ± 6.78%
  MCH: 16.08 ± 0.40 pg
  MCHC: 335.33 ± 6.28 g/L
  MCV: 47.95 ± 0.38 fL
  MPV: 5.48 ± 0.48 fL
  Mon: 0.38 ± 0.05 10^9/L
  Neu: 1.35 ± 0.40 10^9/L
  Neu%: 21.23 ± 5.92%
  PCT: 0.69 ± 0.09%
  PDW: 15.33 ± 0.10
  PLT: 1272 ± 206.81 10^9/L
  RBC: 7.49 ± 0.34 10^12/L
  RDW-CV: 12.18 ± 0.22%
  RDW-SD: 25.75 ± 1.03 fL
  WBC: 6.66 ± 2.04 10^9/L
ICR healthy mice [3]; 80 mg/kg ShSPI, n = 6, * p < 0.05 vs blank control
  Mon%: 6.16 ± 1.76 * %
ICR healthy mice [3]; 160 mg/kg ShSPI, n = 6
  Bas: 0.02 ± 0.01 10^9/L
  Bas%: 0.20 ± 0.12%
  Eos: 0.21 ± 0.19 10^9/L
  Eos%: 1.85 ± 1.23%
  HCT: 37.81 ± 1.30%
  HGB: 126.66 ± 4.36 g/L
  Lym: 8.63 ± 2.79 10^9/L
  Lym%: 75.90 ± 6.54%
  MCH: 16.05 ± 0.40 pg
  MCHC: 335.33 ± 4.13 g/L
  MCV: 47.86 ± 65 fL
  MPV: 5.21 ± 0.21 fL
  Mon: 0.42 ± 0.21 10^9/L
  Mon%: 3.58 ± 0.74%
  Neu: 2.23 ± 1.28 10^9/L
  Neu%: 18.46 ± 5.30%
  PCT: 0.78 ± 0.07%
  PDW: 15.21 ± 0.07
  PLT: 1511.2 ± 178.44 10^9/L
  RBC: 7.90 ± 0.31 10^12/L
  RDW-CV: 12.83 ± 0.74%
  RDW-SD: 27.20 ± 1.81 fL
  WBC: 11.5 ± 4.13 10^9/L
